Measured values published in the NIST ThermoML archive (doi:10.1016/j.tca.2016.05.001).
Numbers after ± are expanded uncertainties.

Tests used:
[1] = Molar enthalpy of transition or fusion; details: Crystal; DSC

c1cnc2c(c1)ccc1cccnc12 [1,10-phenanthroline]
Details | vapor or sublimation pressure [kPa]
308.1 K, Crystal, Calculated from knudsen effusion weight loss | 8.3e-07 ± 1.9e-07
313.1 K, Crystal, Calculated from knudsen effusion weight loss | 1.76e-06 ± 3.7e-07
318.1 K, Crystal, Calculated from knudsen effusion weight loss | 3.3e-06 ± 7e-07
320.9 K, Crystal, Calculated from knudsen effusion weight loss | 4.6e-06 ± 1e-06
323.1 K, Crystal, Calculated from knudsen effusion weight loss | 5.5e-06 ± 1.2e-06
325.8 K, Crystal, Calculated from knudsen effusion weight loss | 8e-06 ± 1.7e-06
327.9 K, Crystal, Calculated from knudsen effusion weight loss | 9.9e-06 ± 2.1e-06
330.9 K, Crystal, Calculated from knudsen effusion weight loss | 1.53e-05 ± 3.2e-06
332.8 K, Crystal, Calculated from knudsen effusion weight loss | 1.71e-05 ± 3.6e-06
335.7 K, Crystal, Calculated from knudsen effusion weight loss | 2.6e-05 ± 5e-06
337.7 K, Crystal, Calculated from knudsen effusion weight loss | 3e-05 ± 6e-06
340.6 K, Crystal, Calculated from knudsen effusion weight loss | 4.2e-05 ± 9e-06
342.6 K, Crystal, Calculated from knudsen effusion weight loss | 5.1e-05 ± 1.1e-05
345.5 K, Crystal, Calculated from knudsen effusion weight loss | 7.7e-05 ± 1.6e-05
345.6 K, Crystal, Calculated from knudsen effusion weight loss | 7.5e-05 ± 1.6e-05
347.5 K, Crystal, Calculated from knudsen effusion weight loss | 9.2e-05 ± 1.9e-05
350.8 K, Crystal, Calculated from knudsen effusion weight loss | 0.000131 ± 2.7e-05
352.7 K, Crystal, Calculated from knudsen effusion weight loss | 0.000148 ± 3.1e-05
354.7 K, Crystal, Calculated from knudsen effusion weight loss | 0.000194 ± 4e-05
357.7 K, Crystal, Calculated from knudsen effusion weight loss | 0.00024 ± 5e-05
358.6 K, Crystal, Calculated from knudsen effusion weight loss | 0.00025 ± 5e-05
360.5 K, Crystal, Calculated from knudsen effusion weight loss | 0.0003 ± 6e-05
360.6 K, Crystal, Calculated from knudsen effusion weight loss | 0.00033 ± 7e-05
361.8 K, Crystal, Calculated from knudsen effusion weight loss | 0.00034 ± 7e-05
362.5 K, Crystal, Calculated from knudsen effusion weight loss | 0.00038 ± 8e-05
363.4 K, Crystal, Calculated from knudsen effusion weight loss | 0.0004 ± 8e-05
365 K, Crystal, Calculated from knudsen effusion weight loss | 0.00046 ± 0.0001
366.3 K, Crystal, Calculated from knudsen effusion weight loss | 0.00052 ± 0.00011
367.4 K, Crystal, Calculated from knudsen effusion weight loss | 0.0006 ± 0.00012
367.6 K, Crystal, Calculated from knudsen effusion weight loss | 0.00059 ± 0.00012
369.3 K, Crystal, Calculated from knudsen effusion weight loss | 0.00069 ± 0.00014
370.9 K, Crystal, Calculated from knudsen effusion weight loss | 0.0008 ± 0.00017
372.2 K, Crystal, Calculated from knudsen effusion weight loss | 0.0009 ± 0.00019
374 K, Crystal, Calculated from knudsen effusion weight loss | 0.00107 ± 0.00023
375.1 K, Crystal, Calculated from knudsen effusion weight loss | 0.00119 ± 0.00026
377.2 K, Crystal, Calculated from knudsen effusion weight loss | 0.0014 ± 0.0003
378.1 K, Crystal, Calculated from knudsen effusion weight loss | 0.00154 ± 0.00034
380.1 K, Crystal, Calculated from knudsen effusion weight loss | 0.00182 ± 0.0004
381 K, Crystal, Calculated from knudsen effusion weight loss | 0.00199 ± 0.00044
382.8 K, Crystal, Calculated from knudsen effusion weight loss | 0.00229 ± 0.0005
384.2 K, Crystal, Calculated from knudsen effusion weight loss | 0.00264 ± 0.00058
385.6 K, Crystal, Calculated from knudsen effusion weight loss | 0.00292 ± 0.00064
387.1 K, Crystal, Calculated from knudsen effusion weight loss | 0.00335 ± 0.00074
393.2 K, Liquid, Rate of evaporation | 0.0054 ± 0.0022
395.9 K, Liquid, Rate of evaporation | 0.0061 ± 0.0025
398.6 K, Liquid, Rate of evaporation | 0.0073 ± 0.003
401.3 K, Liquid, Rate of evaporation | 0.0084 ± 0.0034
404.1 K, Liquid, Rate of evaporation | 0.0094 ± 0.0038
406.8 K, Liquid, Rate of evaporation | 0.0113 ± 0.0046
409.5 K, Liquid, Rate of evaporation | 0.0131 ± 0.0053
412.3 K, Liquid, Rate of evaporation | 0.0147 ± 0.006
415 K, Liquid, Rate of evaporation | 0.0173 ± 0.007
417.7 K, Liquid, Rate of evaporation | 0.0206 ± 0.0084
420.5 K, Liquid, Rate of evaporation | 0.024 ± 0.0098

Details | Triple point temperature [K]
Crystal, DSC | 390.9 ± 2.1

Details | Molar enthalpy of transition or fusion [kcal/mol]
[1] | 3.2 ± 0.382
